One experiment deals with male Wistar rats. As to the kind of experiment: Carrageenan-induced acute inflammation of plantar pads. Format: in vivo, rat. On the procedure:
The role of […] was investigated by inducing inflammation of the plantar pads of rats with carrageenan, a model that mimics the state of acute inflammation in humans.
Inflammation was induced in male Wistar rats by means of injection of 0.1 ml of carrageenan at 1% in sterile saline solution in the rats' right plantar pad. Peak inflammation occurs 3 hours after injection of carrageenan; at this point (t=0), the rats are treated with […] or diclofenac or indometacin (100 μM in 0.15 ml); the antinociceptive effect of the drugs was measured at 1, 3, 6, 12 and 24 hours after their administration.

Another experiment relates to male Sprague Dawley rats. As to the kind of experiment: Pain from chemotherapeutic drugs: model with paclitaxel (von Frey, Hargreaves). Format: in vivo, rat. As to conditions: P≦0.001. On the procedure: One of the best validated models for testing this effect is that described hereunder; repeated administration of paclitaxel to rats. The animals (male Sprague Dawley rats weighing 250-300 g; Harlan, Italy) were treated with paclitaxel (2 mg/kg) administered intraperitoneally on alternate days (day 0,2,4,6). The behavioural tests for thermal and mechanical sensitivity were carried out on day 1 (the day following the first injection of paclitaxel), day 10, day 14 (7 days from the last injection), day 24 (peak severity of hyperalgesia and allodynia), day 30 and day 35 (day on which the animals were sacrificed). The animals (n=15) were divided into three experimental groups. The first group (A) received the treatment with paclitaxel, and was treated daily with […], 6 mg/kg by intraperitoneal injection from day 14 to day 35; the second group (B) treated with paclitaxel, was treated from day 14 to 35 with only the vehicle, and finally the third group consisted of naive animals (C). The results obtained are shown in the bar charts in FIGS. 18 and 19.

The subject of the next experiment is naive CD4 cells. As to the kind of experiment: Induction of T regulatory (Treg) cells from naive CD4 cells. It is filed as cell-based, mouse. As to conditions: anti-CD3 stimulation 96 h, increasing concentrations; FIG. 22. On the procedure:
We evaluated the capacity of […] to induce in vitro the differentiation of naive CD4 cells into immunosuppressive Treg cells characterized by the phenotype CD4+CD25+ and by expression of the Foxp3 transcription factor. […] The naive CD4 cells were stimulated with anti-CD3 antibodies for 96 h in the presence of increasing concentrations of […].

Another experiment concerns mice. As to the kind of experiment: Asthma: ovalbumin sensitization and aerosol challenge, BALF. As to conditions: 6 mg/kg intratracheal 30 minutes before OA aerosol; FIG. 38. It is filed as in vivo, mouse. As for the experimental part:
Sensitization of mice with ovalbumin (OA) adsorbed on aluminium hydroxide, administered intraperitoneally on day 0 and day 7, can cause a similar asthmatic manifestation when the mouse is subsequently (days 19-21) challenged with OA aerosol. The mice were anaesthetized 30 minutes before the OA aerosol and the treated group received an intratracheal injection of […] 6 mg/kg.
Twenty-four hours after the last administration of OA, a bronchoalveolar lavage was carried out with 3×1 ml of PBS free from calcium and magnesium ions.

For experiment [1], the system named is mice with the R117H CFTR(CF) mutation and wild-type (WT) mice. As to the kind of experiment: Cystic fibrosis: intratracheal LPS in R117H CFTR and WT mice. It is filed as in vivo, mouse. As for the experimental part:
For the experiments, 32 mice were used with the R117H CFTR(CF) mutation, responsible for the onset of the inflammatory disorder, and 18 wild-type (WT) mice with a genetic background of the C57BL/6 type.
The trachea was then intubated with a MicroSprayer (PennCentury), capable of vaporizing the drug as aerosol at a concentration of 25 μl of […] 300 μM or of vehicle. The mice were weighed daily.
On day 4, all the mice received the inflammatory stimulus (1 μg of LPS) together with […] or vehicle; separate experiments were conducted, inducing only the inflammatory stimulus in the mice. About 24 hours after administration of LPS, the mice were sacrificed and samples of BALF were collected, from which the cellular component was isolated, and was analysed under the microscope for characterizing its leukocyte phenotype.

One compound from patent US20160129005A1, “ADENINE DERIVATIVES HAVING IMMUNOMODULATING ANTI-INFLAMMATORY AND ANALGESIC ACTIVITY” (MEDESTEA RESEARCH & PRODUCTION S.p.A., priority 2011, published 2016) can be followed below.

Regarding `C=C(C=O)OC(C=O)n1cnc2c(N)ncnc21` (centres unmarked) [2-[1-(6-aminopurin-9-yl)-2-oxoethoxy]prop-2-enal], the “macrophages infiltrating the plantar pad (immunohistochemistry)” value with male Wistar rats (biopsies from plantar pads) is “significantly reduces the presence of macrophages”. For the same compound, the “effect on thermal hyperalgesia compared with diclofenac or indometacin” value in the experiment with male Wistar rats (single dose 6 mg/kg) is “greater than the effect produced by diclofenac or indometacin”. Moreover, the “thermal hyperalgesia in the plantar pads” value in the experiment on male Wistar rats (single dose 6 mg/kg, local and intravenous, for 24 hours) is “significantly reduces thermal hyperalgesia”. In addition, the “threshold of mechanical sensitivity (von Frey)” value in the experiment with male Sprague Dawley rats (group A, paclitaxel + IMMUFLAM 6 mg/kg i.p. daily from day 14, day 30, vehicle 11.85±0.61 s) amounted to 18.28 ± 0.65 s. Also, the “threshold of thermal sensitivity (Hargreaves)” value in the experiment with male Sprague Dawley rats (paclitaxel + IMMUFLAM 6 mg/kg i.p. for twenty-one days (day 35), vehicle 5.82±0.18 s) came to 10.21 ± 0.34 s. For the same compound, the “differentiation of naive CD4 cells into Treg cells (CD4+CD25+ Foxp3)” value in the experiment with naive CD4 cells was “induced the differentiation of Treg cells in a manner that was dependent on the dose used”. In addition, the “immune cells and mediators of inflammation in BALF” value in the experiment on mice was “Significantly lower levels of immune cells and mediators of inflammation”. For the same compound, the “reduction in concentrations of IL-1β, IL-6, TNFα and the murine analogue of IL-8 in BAL” value in experiment [1] (CF and WT mice, FIGS. 42B and C) is 56%-83%. In addition, the “decrease in neutrophil percentage relative to vehicle” value in experiment [1] (CF mice, intratracheal LPS, 25 μl of 300 μM aerosol, p<0.001, FIG. 42A) is on record as 60%. In addition, the “decrease in the percentage of neutrophils” value in experiment [1] (WT mice, intratracheal LPS, compared to 89% for vehicle, p<0.01) was 47%. In addition, the body weight entry in experiment [1] (within first 24 hours, vehicle lost 4-8%, FIG. 41) is “no change in their body weight”.
